Where “and” joins values, the source holds several entries; their conditions need not be identical. Equal values may be shown once. Toxic doses and inconclusive results are not listed.

Data on 19 compounds can be found in PubChem BioAssay AID316 (DTP/NCI, 2004).

The assay has as its system P1534 leukemia ip, CD2F1 mice, survival T/C. Kind of assay: NCI In Vivo Anticancer Drug Screen. Data for tumor model P1534 Leukemia (intraperitoneal) in CD2F1 (CDF1) mice. The following applies: higher = longer survival. The method, then: The antitumor activity of compounds was measured in mice bearing transplantable tumors. Survival or tumor size were measured and the results are expressed as the measurement made in the treated group (T) divided by the measurement made in the vehicle treated control group (C). The tumor model used in this assay is P1534 Leukemia (intraperitoneal) in CD2F1 (CDF1) mice

Setting [1] is: endpoint: mean survival time, dose: 50.0 mg/kg/injection, schedule: Q01DX010 (ip), vehicle: saline.
[2] abbreviates: endpoint: mean survival time, dose: 100.0 mg/kg/injection, schedule: Q01DX010 (ip), vehicle: saline.
The mark [3] stands for this setting: endpoint: mean survival time, dose: 200.0 mg/kg/injection, schedule: Q01DX010 (ip), vehicle: saline.
Setting [4] is: endpoint: mean survival time, dose: 400.0 mg/kg/injection, schedule: Q01DX010 (ip), vehicle: saline.
Setting [5] is: endpoint: mean survival time, dose: 10.0 mg/kg/injection, schedule: Q01DX010 (ip), vehicle: saline.
Where [6] appears, read: endpoint: mean survival time, dose: 20.0 mg/kg/injection, schedule: Q01DX010 (ip), vehicle: saline.
The mark [7] stands for this setting: endpoint: mean survival time, dose: 40.0 mg/kg/injection, schedule: Q01DX010 (ip), vehicle: saline.
The mark [8] stands for this setting: endpoint: mean survival time, dose: 80.0 mg/kg/injection, schedule: Q01DX010 (ip), vehicle: saline.
[9] abbreviates: endpoint: mean survival time, dose: 12.5 mg/kg/injection, schedule: Q01DX010 (ip), vehicle: saline.
[10] abbreviates: endpoint: mean survival time, dose: 25.0 mg/kg/injection, schedule: Q01DX010 (ip), vehicle: saline.
Where [11] appears, read: endpoint: mean survival time, dose: 62.5 mg/kg/injection, schedule: Q01DX010 (ip), vehicle: saline.
The mark [12] stands for this setting: endpoint: mean survival time, dose: 125.0 mg/kg/injection, schedule: Q01DX010 (ip), vehicle: saline.
[13] abbreviates: endpoint: mean survival time, dose: 15.6 mg/kg/injection, schedule: Q01DX010 (ip), vehicle: saline.
The mark [14] stands for this setting: endpoint: mean survival time, dose: 31.3 mg/kg/injection, schedule: Q01DX010 (ip), vehicle: saline.

`CC1CCC(NC(=O)N(CCCl)N=O)CC1` (stereo not drawn): the T/C runs as follows: (endpoint: median survival time, dose: 1.0 mg/kg/injection, schedule: Q01DX005 (ip), vehicle: other) 111 % of control; (endpoint: median survival time, dose: 4.0 mg/kg/injection, schedule: Q01DX005 (ip), vehicle: other) 255 % of control; (endpoint: median survival time, dose: 8.0 mg/kg/injection, schedule: Q01DX005 (ip), vehicle: other) 255 % of control; (endpoint: median survival time, dose: 16.0 mg/kg/injection, schedule: Q01DX005 (ip), vehicle: other) 115 % of control.

Consider `COc1ccc2c(c1OC)CN1CCc3cc4c(cc3C1C2)OCO4` (stereo not drawn), for which the T/C reads like this: under setting [1], 107 % of control; under setting [2], 92 % of control; under setting [3], 88 % of control; under setting [4], 100 % of control.

Take `COc1ccc2[nH]c3c(C)c4ccncc4c(C)c3c2c1`: the T/C under setting [5] is 105 % of control and 102 % of control; the T/C under setting [6] is 110 % of control and 117 % of control; the T/C under setting [7] is 115 % of control and 123 % of control; the T/C under setting [8] was 122 % of control.

Turning to `O=C(NCCCC(NC(=O)OCc1ccccc1)C(=O)NCCCCCCNCCCCCCNC(=O)C(CCCNC(=O)OCc1ccccc1)NC(=O)OCc1ccccc1)OCc1ccccc1` (stereo not drawn), the T/C by setting is: under setting [9], 100 % of control; under setting [10], 100 % of control; under setting [2], 100 % of control.

Take `COc1ccc2c3c(c4cc(OC)c(OC)cc4c2c1)C[C@H]1CCCCN1C3`: the T/C is, setting by setting: (endpoint: mean survival time, dose: 0.3 mg/kg/injection, schedule: Q01DX010 (ip), vehicle: saline) 100 % of control; (endpoint: mean survival time, dose: 0.5 mg/kg/injection, schedule: Q01DX010 (ip), vehicle: saline) 113 % of control.

Take `C[C@]12C=CC(=O)C=C1CC[C@@H]1[C@@H]2[C@@H](O)C[C@@]2(C)[C@H]1CC[C@]2(O)C(=O)CO`: the T/C by setting is: (endpoint: mean survival time, dose: 12.5 mg/kg/injection, schedule: Q01DX010 (sc), vehicle: steriod suspending solution) 103 % of control; (endpoint: mean survival time, dose: 25.0 mg/kg/injection, schedule: Q01DX010 (sc), vehicle: steriod suspending solution) 106 % of control and 110 % of control.

As for `O=c1cn[nH]c(=O)[nH]1`, the T/C by setting is: under setting [11], 94 % of control and 100 % of control; under setting [12], 100 % of control; (endpoint: mean survival time, dose: 250.0 mg/kg/injection, schedule: Q01DX010 (ip), vehicle: saline) 94 % of control and 100 % of control; (endpoint: mean survival time, dose: 500.0 mg/kg/injection, schedule: Q01DX010 (ip), vehicle: saline) 105 % of control and 111 % of control.

As for `O=CN(O)CC(=O)O`, the T/C by setting is: under setting [13], 100 % of control; under setting [14], 100 % of control; under setting [11], 100 % of control; under setting [12], 103 % of control.

Regarding `NC(Cn1ccc(=O)c(O)c1)C(=O)O` (stereo not drawn), the T/C (endpoint: mean survival time, dose: 118.0 mg/kg/injection, schedule: Q01DX010 (ip), vehicle: saline) was 92 % of control; the T/C (endpoint: mean survival time, dose: 178.0 mg/kg/injection, schedule: Q01DX010 (ip), vehicle: saline) was 92 % of control; the T/C (endpoint: mean survival time, dose: 267.0 mg/kg/injection, schedule: Q01DX010 (ip), vehicle: saline) was 92 % of control.

Take `O=CC1CO1` (stereo not drawn): the T/C runs as follows: (endpoint: mean survival time, dose: 13.0 mg/kg/injection, schedule: Q01DX010 (ip), vehicle: saline) 107 % of control; (endpoint: mean survival time, dose: 19.0 mg/kg/injection, schedule: Q01DX010 (ip), vehicle: saline) 107 % of control; (endpoint: mean survival time, dose: 29.0 mg/kg/injection, schedule: Q01DX010 (ip), vehicle: saline) 111 % of control; (endpoint: mean survival time, dose: 29.0 mg/kg/injection, schedule: Q01DX010 (ip), vehicle: steriod suspending solution) 100 % of control; (endpoint: mean survival time, dose: 44.0 mg/kg/injection, schedule: Q01DX010 (ip), vehicle: saline) 100 % of control; (endpoint: mean survival time, dose: 44.0 mg/kg/injection, schedule: Q01DX010 (ip), vehicle: steriod suspending solution) 86 % of control.

With `CS(=O)(=O)OCC(O)C(O)COS(C)(=O)=O` (stereo not drawn), the T/C was 107 % of control under setting [6]; 107 % of control under setting [7]; 107 % of control under setting [8]; 103 % of control under setting [2]; 117 % of control (endpoint: mean survival time, dose: 160.0 mg/kg/injection, schedule: Q01DX010 (ip), vehicle: saline); 103 % of control under setting [3]. Further, the T/C under setting [4] is 107 % of control and the T/C (endpoint: mean survival time, dose: 800.0 mg/kg/injection, schedule: Q01DX010 (ip), vehicle: saline) was 89 % of control.

For the compound `Nc1nc(=S)c2[nH]cnc2[nH]1`, the T/C is 161 % of control and 181 % of control (endpoint: mean survival time, dose: 1.25 mg/kg/injection, schedule: Q01DX010 (ip), vehicle: saline); 150 % of control (endpoint: mean survival time, dose: 2.5 mg/kg/injection, schedule: Q01DX010 (ip), vehicle: saline); 122 % of control (endpoint: mean survival time, dose: 5.0 mg/kg/injection, schedule: Q01DX010 (ip), vehicle: saline); 105 % of control under setting [5].

As for `CC(C)=CCC1=C(O)c2ccccc2C(=O)C1=O`, the T/C by setting is: (endpoint: mean survival time, dose: 200.0 mg/kg/injection, schedule: Q01DX010 (oral), vehicle: other) 102 % of control; (endpoint: mean survival time, dose: 300.0 mg/kg/injection, schedule: Q01DX010 (oral), vehicle: other) 115 % of control; (endpoint: mean survival time, dose: 400.0 mg/kg/injection, schedule: Q01DX010 (oral), vehicle: other) 112 % of control; (endpoint: mean survival time, dose: 600.0 mg/kg/injection, schedule: Q01DX010 (oral), vehicle: other) 103 % of control.

Take `CN(/N=N/N(C)c1ccccc1)c1ccccc1`: the T/C is, setting by setting: under setting [13], 115 % of control; under setting [14], 103 % of control; under setting [11], 111 % of control; under setting [12], 100 % of control.

`O=C1C(=O)N(CN2CCCCC2)c2ccccc21`: the T/C runs as follows: under setting [1], 100 % of control; under setting [2], 100 % of control; under setting [3], 96 % of control; under setting [4], 100 % of control.

For the compound `CCCCNc1ncnc2c1cnn2C`, the T/C under setting [14] was 100 % of control; the T/C under setting [11] was 88 % of control and 100 % of control.

As for `CC(=O)OC(C)(C)/C=C/C(=O)[C@](C)(O)[C@H]1[C@H](O)C[C@@]2(C)[C@@H]3CC=C4[C@@H](C[C@H](O)C(=O)C4(C)C)[C@]3(C)C(=O)C[C@]12C`, the T/C by setting is: (endpoint: mean survival time, dose: 0.16 mg/kg/injection, schedule: Q01DX010 (ip), vehicle: saline) 96 % of control; (endpoint: mean survival time, dose: 0.25 mg/kg/injection, schedule: Q01DX010 (ip), vehicle: saline) 100 % of control; (endpoint: mean survival time, dose: 0.38 mg/kg/injection, schedule: Q01DX010 (ip), vehicle: saline) 103 % of control.

For the compound `CCCNc1ncnc2c1cnn2C`, the T/C (endpoint: mean survival time, dose: 3.13 mg/kg/injection, schedule: Q01DX010 (ip), vehicle: saline) was 100 % of control; the T/C (endpoint: mean survival time, dose: 6.25 mg/kg/injection, schedule: Q01DX010 (ip), vehicle: saline) was 103 % of control and 100 % of control; the T/C under setting [9] is 103 % of control and 107 % of control; the T/C under setting [10] was 107 % of control and 100 % of control.

`CS(=O)(=O)OCC(O)C(O)C(O)C(O)COS(C)(=O)=O` (stereo not drawn): the T/C under setting [10] is 107 % of control; the T/C under setting [1] is 103 % of control and 100 % of control; the T/C under setting [2] is 107 % of control; the T/C under setting [3] is 107 % of control and 121 % of control.
